# According to patent US20250241882A1, “COMPOSITION FOR TREATMENT OF THE SKIN” (DR. KURT WOLFF GMBH & CO. KG, priority 2022, published 2025):
# Entries after “also recorded” stand apart in the source; their conditions may differ.
# What was measured:
# Format in all cases: cell-based, human
# [1] = tested on: HaCaT cells; assay: MTT assay, cell viability; details: after 48 h and 72 h of cultivation, versus control without DMG
# Procedure: (§1) 1. As part of an in-vitro study, the effect of Na-dimethylglycinate was investigated in a cell culture model with human horn-forming keratinocyte cells. For this purpose, HaCaT cells were cultured for 1, 3, 5, and 7 days in DMEM medium (including fetal calf serum and an antibiotic-antimycotic mix) and, among other things, the viability, proliferation and migration of the cells were determined using suitable measuring methods, as well as the expression of the growth factors relevant for cell growth.
# For this measurement, a so-called MTT assay was used to determine cellular metabolic activity as an indicator of cell viability and cytotoxicity. This colorimetric assay is based on the reduction of a yellow tetrazolium salt (3-(4,5-dimethylthiazol-2-yl)-2,5-diphenyltetrazolium bromide or MTT) to violet formazan crystals by metabolically active cells.
# Human epidermal keratinocyte cells (HaCaT) were seeded in a 96-well plate at a cell density of 5,000 cells/well and cultured in medium (DMEM with 10% FBS, 1% penicillin-streptomycin, 0.5% Fungizone). […]
# Cell viability was determined using MTT assay. The absorbance was measured using quadruple determination and standardized to the control at 24 h. […]
# [2] = tested on: HaCaT cells; assay: CyQUANT assay, cell proliferation; details: after 48 h and 72 h of cultivation, versus control without DMG
# Procedure: as §1
# To measure proliferation, a so-called CyQUANT assay was performed. In this fluorescence-based assay, the fluorescent dye used binds to DNA (deoxyribonucleic acid), whereby the content of cellular DNA is a direct measure of the number of cells within a sample. Human epidermal keratinocyte cells (HaCaT) were seeded in a 96-well plate at a cell density of 5,000 cells/well and cultured in medium (DMEM with 10% FBS, 1% penicillin-streptomycin, 0.5% Fungizone). The next day and after a further 24 h, 48 h and 72 h of cultivation at 37° C. and 5 vol. % CO2, the cell culture medium was changed without (control) or with the active ingredient concentrations already contained. […]
# Cell proliferation was determined using the CyQUANT assay. Fluorescence was measured using triple determination each time and standardized to the control at 24 h. […]
# [3] = tested on: HaCaT cells; assay: wound healing assay, cell migration; details: different DMG concentrations, 16 h, 20 h, 24 h, compared to the control without DMG
# Procedure: as §1
# To measure migration, a so-called wound healing assay was performed, based on previously published studies in T. Kawabata, T. Otsuka, K. Fujita, G. Sakai, R. Matsushima-Nishiwaki, O. Kozawa, H. Tokuda, International journal of molecular medicine 2018, 42, 3,149-3,156. The principle is based on measuring the migration of cells over time on a cultivation surface yet to be colonized. […]
# At time 0 h, the wound was created and images were taken after 16 h, 20 h, and 24 h of cultivation. Based on the images, the cultivation surface, which had not yet been populated by cells, was determined using the ImageJ software. The measured values are standardized to the time point 0 h (maximum size of the wound) and given in %.
# [4] = tested on: VEGF; assay: VEGF gene expression by qRT-PCR in HaCaT cells; details: after 24 h of cultivation, standardized to GAPDH, versus control
# Procedure: VEGF (vascular endothelial growth factor) promotes the growth and formation of new blood and lymph vessels. Gene expression was measured using a standard method of quantitative real-time PCR (qRT-PCR).
# Human epidermal keratinocyte cells (HaCaT) were seeded in a 6-well plate at a cell density of 140,000 cells/well and cultured in medium (DMEM with 10% FBS, 1% penicillin-streptomycin, 0.5% Fungizone) at 37° C. and 5 vol. % CO2. The next day, the cell culture medium was changed without (control) and with the active ingredient concentrations already contained and the cells were harvested after 24 h. Gene expression was measured using qRT-PCR based on previously published studies in B. V. Diaz, M.-C. Lenoir, A. Ladoux, C. Frelin, M. Demarchez, S. Michel, Journal of Biological Chemistry 2000, 275, 642-650.
# Shown is the relative gene expression of VEGF determined by qRT-PCR (triple determination, standardized to the corresponding gene expression of a constitutively expressed gene; GAPDH-glyceraldehyde-3-phosphate dehydrogenase). The mean value with standard deviation is given.
structure (smiles),measurement,setting,value
"CN(C)CC(=O)[O-].[Na+] [DMG, sodium dimethylglycinate]",cell viability (MTT assay),[1],significant increase
same,cell proliferation (CyQUANT assay),[2],significant increase
same,migration and wound closure,[3],significantly faster
same,relative gene expression of VEGF,[4],significant increase; also recorded: significantly increased
